ChEMBL document CHEMBL5108006, “Synthesis and antiviral properties of biomimetic iminosugar-based nucleosides” (Eur J Med Chem, 2022)

Assays:
Human adenovirus 2 = type: functional, organism-based; conditions: Human mastadenovirus C, HEL
Human alphaherpesvirus 2 = type: functional, organism-based; conditions: Human alphaherpesvirus 2, G, HEL
Human betaherpesvirus 5 [1] = type: functional, organism-based; conditions: Human betaherpesvirus 5, Davis, HEL
[2] = (§1) Cytotoxicity against HEL cells assessed as alteration of cell morphology by microscopic analysis; type: toxicity, cell-based; conditions: human, HEL cells
Human alphaherpesvirus 1 [3] = type: functional, organism-based; conditions: Human alphaherpesvirus 1, KOS, HEL
Human alphaherpesvirus 1 [4] = type: functional, organism-based; conditions: Human alphaherpesvirus 1, KOS, HEL; remark: listed apart in the source
Human alphaherpesvirus 3 [5] = type: functional, organism-based; conditions: Human alphaherpesvirus 3, O7-1, HEL
Human betaherpesvirus 5 [6] = type: functional, organism-based; conditions: Human betaherpesvirus 5, AD-169, HEL
Human alphaherpesvirus 3 [7] = type: functional, organism-based; conditions: Human alphaherpesvirus 3, OKA, HEL
Vaccinia virus = assay: microbe, parasite or virus in culture; conditions: Orthopoxvirus vaccinia, HEL
HEL = assay: as §1; type: toxicity, cell-based; conditions: human, hel

Structure (SMILES) | EC50 (Human adenovirus 2) [µM] | EC50 (Human alphaherpesvirus 2) [µM] | EC50 (Human betaherpesvirus 5 [1]) [µM] | MCC [2] [µM] | EC50 (Human alphaherpesvirus 1 [3]) [µM] | EC50 (Human alphaherpesvirus 1 [4]) [µM] | EC50 (Human alphaherpesvirus 3 [5]) [µM] | EC50 (Human betaherpesvirus 5 [6]) [µM] | EC50 (Human alphaherpesvirus 3 [7]) [µM] | EC50 (Vaccinia virus) [µM] | Activity (HEL)
O=c1[nH]c(=O)n([C@@H]2CN[C@H](CO)[C@@H](O)C2)cc1I | 50 | 45 | 67 | > 100 | 34 | 45 | 61 | 76 | 50 | 50 | 
Nc1nc(=O)n([C@@H]2CN[C@H](CO)[C@@H](O)C2)cc1F |  |  |  |  |  |  |  |  |  |  | Non-Toxic
Nc1nc2c(ncn2COCCO)c(=O)[nH]1 [ACYCLOVIR] |  |  |  | > 250 | 126 |  | 14.7 |  | 0.7 | > 250 | 
O=c1[nH]c(=O)n([C@H]2C[C@H](O)[C@@H](CO)O2)cc1/C=C/Br [BRIVUDINE] |  |  |  | > 250 |  |  | 2.4 |  | 0.042 |  | 
Nc1ccn(C[C@@H](CO)OCP(=O)(O)O)c(=O)n1 [CIDOFOVIR] |  |  |  | > 250 | 1 |  |  |  |  |  | 
Nc1nc2c(ncn2COC(CO)CO)c(=O)[nH]1 [GANCICLOVIR] |  |  | 0.63 | > 100 |  |  |  |  |  | > 100 | 
